Test results published in ChEMBL document CHEMBL1136316, “Low molecular mass peptide dendrimers that express antimicrobial properties” (2003).
≈ marks a conversion by molar mass, not a printed value.

How the values were obtained:
Staphylococcus aureus = assay: Antimicrobial activity against Staphylococcus aureus NCTC 4163; assay type: functional
Escherichia coli = assay: Antimicrobial activity against Escherichia coli NCTC 8196; assay type: functional

SMILES	MIC (Staphylococcus aureus)	MIC (Escherichia coli)
NCCCC[C@@H](NC(=O)OCc1ccccc1)C(=O)NCCCC[C@@H](NC(=O)[C@@H](CCCCN)NC(=O)OCc1ccccc1)C(=O)N[C@H](Cc1ccc(O)cc1)C(N)=O	1330 µM (≈ 1110 µg/mL)	165 µM (≈ 137 µg/mL)
NC(=O)[C@@H](Cc1ccc(O)cc1)NC(=O)[C@@H](CCCCNC(=O)[C@H](N)CCCCNC(=O)OCc1ccccc1)NC(=O)[C@H](N)CCCCNC(=O)OCc1ccccc1	331 µM (≈ 276 µg/mL)	331 µM (≈ 276 µg/mL)
NCCCC[C@@H](NC(=O)OCc1ccccc1)C(=O)NCCC[C@@H](NC(=O)[C@@H](CCCCN)NC(=O)OCc1ccccc1)C(=O)N[C@H](Cc1ccccc1)C(N)=O	85 µM (≈ 68.3 µg/mL)	85 µM (≈ 68.3 µg/mL)
NC(=O)[C@@H](Cc1ccccc1)NC(=O)[C@@H](CCCCNC(=O)[C@H](N)CCCCNC(=O)OCc1ccccc1Cl)NC(=O)[C@H](N)CCCCNC(=O)OCc1ccccc1Cl	16 µM (≈ 14.2 µg/mL)	84 µM (≈ 74.4 µg/mL)
NC(=O)[C@@H](Cc1ccccc1)NC(=O)[C@@H](CCCCNC(=O)[C@@H](CCCCNC(=O)[C@@H](N)CCCN=C(N)N)NC(=O)[C@@H](N)CCCN=C(N)N)NC(=O)[C@@H](CCCCNC(=O)C(N)CCCN=C(N)N)NC(=O)[C@H](N)CCCN=C(N)N (stereo partly specified)	130 µM (≈ 153 µg/mL)	75 µM (≈ 88 µg/mL)
NCCCC[C@@H](NC(=O)OCc1ccccc1)C(=O)NCCCC[C@@H](NC(=O)[C@@H](CCCCN)NC(=O)OCc1ccccc1)C(=O)N[C@H](Cc1ccccc1)C(N)=O	39 µM (≈ 31.9 µg/mL)	64 µM (≈ 52.3 µg/mL)
C[C@H](N)C(=O)NCCCC[C@H](NC(=O)[C@H](C)N)C(=O)NCCCC[C@H](NC(=O)[C@H](CCCCNC(=O)[C@H](C)N)NC(=O)[C@H](C)N)C(=O)N[C@@H](Cc1ccccc1)C(N)=O (stereo in doubt)	181 µM (≈ 151 µg/mL)	181 µM (≈ 151 µg/mL)
N=C(N)NCCCC(NC(=O)OCc1ccccc1)C(=O)NCCCCC(NC(=O)C(CCCN=C(N)N)NC(=O)OCc1ccccc1)C(=O)NCCCCC(NC(=O)C(CCCCNC(=O)C(CCCN=C(N)N)NC(=O)OCc1ccccc1)NC(=O)C(CCCN=C(N)N)NC(=O)OCc1ccccc1)C(=O)N[C@H](Cc1ccccc1)C(N)=O (stereo in doubt)	44 µM (≈ 75.2 µg/mL)	20 µM (≈ 34.2 µg/mL)

Further compounds by falling MIC (Staphylococcus aureus), results first:

MIC (Staphylococcus aureus)	MIC (Escherichia coli)	SMILES
300 µM (≈ 92.2 µg/mL)	590 µM (≈ 181 µg/mL)	COC(=O)[C@H](Cc1ccccc1)NC(=O)[C@@H](N)CCCCN
151 µM (≈ 64.4 µg/mL)	324 µM (≈ 138 µg/mL)	NCCCC[C@H](NC(=O)OCc1ccccc1)C(=O)N[C@@H](Cc1ccccc1)C(N)=O
94 µM (≈ 68.3 µg/mL)	375 µM (≈ 273 µg/mL)	NCCCC[C@@H](NC(=O)OCc1ccccc1)C(=O)NCCCC[C@@H](NC(=O)[C@@H](CCCCN)NC(=O)OCc1ccccc1)C(=O)NCC(N)=O
88 µM (≈ 150 µg/mL)	44 µM (≈ 75.2 µg/mL)	N=C(N)NCCCC(NC(=O)OCc1ccccc1)C(=O)NCCCC[C@@H](NC(=O)C(CCCN=C(N)N)NC(=O)OCc1ccccc1)C(=O)N[C@H](CCCCNC(=O)[C@@H](CCCCNC(=O)C(CCCN=C(N)N)NC(=O)OCc1ccccc1)NC(=O)C(CCCN=C(N)N)NC(=O)OCc1ccccc1)C(=O)N[C@H](Cc1ccccc1)C(N)=O (stereo in doubt)
44 µM (≈ 75.2 µg/mL)	20 µM (≈ 34.2 µg/mL)	N=C(N)NCCC[C@@H](NC(=O)OCc1ccccc1)C(=O)NCCCC[C@H](NC(=O)[C@@H](CCCN=C(N)N)NC(=O)OCc1ccccc1)C(=O)N[C@H](CCCCNC(=O)C(CCCCNC(=O)[C@H](CCCN=C(N)N)NC(=O)OCc1ccccc1)NC(=O)[C@H](CCCN=C(N)N)NC(=O)OCc1ccccc1)C(=O)N[C@H](Cc1ccccc1)C(N)=O (stereo partly specified)
